Source: article PMC7859889 (ACS chemical biology, 2020)
Where a name gives a salt, the structure may show the parent alone. Read-outs that look alike come from different tables or passages of the source.

Experiments:
HLA-B mRNA = test: HLA-B RT-qPCR tertiary assay; type: cell-based, human; details: for Emax: read-out: RT-qPCR Efficacy; for IC50: read-out: RT-qPCR IC50
HLA-ABC = HLA-ABC immunofluorescence; type: cell-based, human; details: for Emax / IC50: Homo sapiens; for Emax: read-out: Immunofluorescence Efficacy
[1] = tested on: type I IFN – MHC class I pathway; test: Average / all assays; type: cell-based, human; details: for IC50: read-out: Average IC50; for hill slope: concentration-response curves
[2] = cited from earlier work
HLA-B HiBit cells = test: CellTiter-Glo
C25cl48 cells = test: IF cell count cytotoxicity; type: cell-based, human; details: for Cell count Curve class: IF cell count cytotoxicity
HLA and ISG genes = test: Multi Gene RT-qPCR, gene panel; type: cell-based, human; details: 4.0 ng/ml IFN-β plus 50 uM compound, 24 hrs; for effect on HLA and ISG gene expression (in words): C25cl48 cells
[3] = tested on: HLA-B HiBit (MHC class I); test: HLA-B HiBit luminescent reporter assay; details: for Emax: read-out: HiBit Efficacy; for HiBit Efficacy: 4.0 ng/ml IFN-β, IFN-β = 0%, DMSO alone = −100% activity
[4] = 37.5 and 50 mg b.i.d. ref 43, 44; cited from earlier work
STAT1 = test: Western blot, STAT1 phosphorylation; type: cell-based, human; details: C25cl48 cells, 0.5 hrs, 4.0 ng/ml IFN-β plus IC95 concentration of compound
[5] = tested on: IL-6 stimulation of whole blood; details: IL-6 stimulation of whole blood ref 20; cited from earlier work
IFIT1 = test: Multi Gene RT-qPCR, IFIT1; type: cell-based, human; details: compared to IFN-β treated cells; 4.0 ng/ml IFN-β plus 50 uM compound, 24 hrs
ISG15 = test: Multi Gene RT-qPCR, ISG15; type: cell-based, human; details: compared to IFN-β treated cells; 4.0 ng/ml IFN-β plus 50 uM compound, 24 hrs
[6] = read-out: Immunofluorescence IC50
[7] = cytotoxicity, 4.0 ng/ml IFN-β, 24 hours
[8] = ( ) - efficacy at highest concentration
[9] = HLA-B mRNA, C25cl48 cells, 4.0 ng/mL IFN-β
[10] = HLA-ABC+ C25cl48 cells, IFN-β-stimulated, prednisolone acetate used for IF
[11] = average of HiBit, Immunofluorescence, RT-qPCR
[12] = HLA-B HiBit clone AB-7 cells, 24 hours
[13] = read-out: HiBit IC50, HLA-B HiBit clone AB-7 cells, 4.0 ng/ml IFN-β plus compound titration, 24 hours

SMILES	Emax (HLA-B mRNA; Homo sapiens) [%]	IC50 (HLA-B mRNA; Homo sapiens) [nM]	Emax (HLA-ABC) [%]	IC50 (HLA-ABC; [6]) [nM]	IC50 ([1]; Homo sapiens) [nM]	hill slope [1]	CTG Curve class (HLA-B HiBit cells; [7])	Cell count Curve class (C25cl48 cells; C25cl48 cells)	efficacy in reducing all HLA and ISG genes (HLA and ISG genes)	effect on HLA and ISG gene expression (in words) (HLA and ISG genes)	Emax ([3]; Homo sapiens, 24 h) [%]	RT-qPCR Curve class (HLA-B mRNA; [9])	RT-qPCR Efficacy (HLA-B mRNA; [9]) [%]	IC50 (HLA-B mRNA; [9]) [nM]	Immunofluorescence Efficacy (HLA-ABC; [10]) [%]	Average Curve class [1, 11]	Average Efficacy [1, 11] [%]	IC50 [1, 11] [nM]	HiBit Efficacy [3, 12] [%]	IC50 [3, 13] [nM]	also measured
CS[C@H]1SC[C@H]2C(=O)N(C)[C@@H](C(C)C)C(=O)OC[C@@H](NC(=O)c3cnc4ccccc4n3)C(=O)N[C@@H](C)C(=O)N(C)[C@@H]1C(=O)N(C)[C@@H](C(C)C)C(=O)OC[C@@H](NC(=O)c1cnc3ccccc3n1)C(=O)N[C@@H](C)C(=O)N2C [Echinomycin, echinomycin]	112	3	120	4.1	6	ultrasensitive	4	4	> 99%	normalized all genes	100	–	–	–	–	–	–	–	–	–	adverse effects in Phase I clinical trial [2]: nausea, vomiting, reversible liver enzyme abnormalities, and allergic reactions
CCN(CC)Cc1ccc2cc(COC(=O)Nc3ccc(C(=O)NO)cc3)ccc2c1 [Givinostat HCl, Givinostat]	100	4100	100	260	1800	–	−3	−3	70–80%	normalized HLA-A and -B to DMSO levels	82	–	–	–	–	–	–	–	–	–	safety signal at higher doses [4]: platelet count decrease; CTG Efficacy at highest concentration (HLA-B HiBit cells; [8]): (18) %; Cell count Efficacy at highest concentration (C25cl48 cells; [8]): (25) %; decrease of ISGs (IFIT1, ISG15, MX1) (HLA and ISG genes; compared to IFN-β treated cells): ~ 90%
CC(C)[C@]12O[C@H]1[C@@H]1O[C@@]13[C@@]1(C)CCC4=C(COC4=O)[C@@H]1C[C@@H]1O[C@@]13C2=O [Triptonide, triptonide]	–	–	–	–	–	ultrasensitive	4	4	> 99%	normalized all genes	–	−1a	113	500	100	−1a	104	246	100	47	Immunofluorescence Curve class (HLA-ABC; [10]): −1a; HiBit Curve class ([3]; HLA-B HiBit clone AB-7 cells, 4.0 ng/ml IFN-β plus compound titration, 24 hours): −1a
N#CC[C@H](C1CCCC1)n1cc(-c2ncnc3[nH]ccc23)cn1 [Ruxolitinib, ruxolitinib]	115	1600	100	880	1200	–	4	4	–	–	–	–	–	–	–	–	–	–	100	–	IC50 (HLA-ABC; 48 h, read-out: IC50, HLA-ABC+ cells control titration): 3500 nM; phosphorylation of STAT1 (STAT1): prevented phosphorylation of STAT1; CTG viability response in control titrations (HLA-B HiBit cells; HLA-B HiBit cells, 24 hrs): slight bell-shaped curve; cell count response in control titrations (C25cl48 cells; C25cl48 cells, 48 hrs): bell shaped viability curve; IC50 [5]: 282 ± 54 nM; IC50 ([3]; Homo sapiens, 24 h, read-out: HiBit IC50): 1100 nM; IC50 ([3]; Homo sapiens, 24 h, read-out: IC50, HiBit control titration): 340 ± 36 nM
Cc1sc2c(c1C)C(c1ccc(Cl)cc1)=N[C@@H](CC(=O)Nc1ccc(OCCOCCOCCOCCNc3cccc4c3C(=O)N(C3CCC(=O)NC3=O)C4=O)cc1)c1nnc(C)n1-2 (some centres unmarked) [ARV-825]	–	–	–	–	–	–	−1b	4	low efficacy	reduced IFIT1 while increasing ISG15	–	−1b	43	65	82	−1b	65	84	71	97	decrease of IFIT1 mRNA (IFIT1): 84%; increase of ISG15 mRNA (ISG15): 2.8 fold; CTG Efficacy (HLA-B HiBit cells; cytotoxicity, IFN-β = 0%, 92 uM Digitonin = −100% activity): 8%; IC50 (HLA-B HiBit cells; read-out: CTG IC50, cytotoxicity, 4.0 ng/ml IFN-β, 24 hours): 53 nM
C[C@@H]1CCN(C(=O)CC#N)C[C@@H]1N(C)c1ncnc2[nH]ccc12 [Tofacitinib, tofacitinib]	83	–	100	–	–	–	4	4	–	–	–	–	–	–	–	–	–	–	100	–	phosphorylation of STAT1 (STAT1): prevented phosphorylation of STAT1
